Results as given in patent publication US20250145589A1, “PYRIDINE DERIVATIVE AND USE THEREOF” (SICHUAN HUIYU PHARMACEUTICAL CO., LTD., priority 2021, published 2025).

Key:
[1] = molecular target: PI3Kα (Homo sapiens (Human), UniProt P42336); experiment: Inhibition of PI3Kα efficacy assay (ADP-Glo kinase assay); format: biochemical; settings: Table 4; read-out: PI3Kα inhibitory activity (IC50)
Summary of the method: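 Eight five-fold dilutions of compound (2 mM DMSO stock) tested; kinase reaction with PI and ATP ran 60 min at RT, followed by ADP-Glo and detection reagent steps of 40 min each. Four-parameter logistic fitting gave IC50 values.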

[2] = molecular target: PI3Kδ (Homo sapiens (Human), UniProt O00329); experiment: Inhibition of PI3Kδ efficacy assay (ADP-Glo kinase assay); format: biochemical; settings: Table 4; read-out: PI3Kδ inhibitory activity (IC50)
Summary of the method: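 Luminescent ADP-Glo readout of PI3Kδ: after a 60 min RT reaction with PI/ATP substrate, ATP depletion (40 min) and ADP detection (40 min) steps followed. Compounds tested as eight five-fold serial dilutions; inhibition rates fitted to log(inhibitor) vs. response, variable slope, for IC50.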

[3] = molecular target: KRAS^G12C-SOS1 (Homo sapiens (Human), UniProt P01116, G12C); experiment: HTRF KRAS G12C/SOS1 binding assay; settings: Table 5
Summary of the method: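 Compound was serially diluted five-fold over eight points, with a 2 mM DMSO stock. After anti-tag-Tb3+ and anti-tag-XL665 were added, plates were incubated 3 h at 4 °C and read by HTRF (ex 337 nm, em 620/665 nm ratio). IC50 values come from four-parameter variable-slope fits.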

[4] = test system: NCI-H358 cells (KRAS G12C mutant); experiment: NCI-H358 cell proliferation inhibition (CellTiter-Glo); format: cell-based; settings: Homo sapiens, NCI-H358, 72 h; H358 cells (G12C mutation), 3 days, Table 6; read-out: NCI-H358 (IC50)
[5] = test system: NCI-H358-AMGR drug-resistant cell line; experiment: NCI-H358-AMGR drug-resistant cell proliferation inhibitory activity test; format: cell-based; settings: 72 h; NCI-H358-AMGR drug-resistant cells, 3 days incubation, CellTiter-Glo
Summary of the method: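 Luminescent CellTiter-Glo read-out after 3-day, 37° C compound exposure (8 points, 5-fold series) of AMG510-resistant NCI-H358 cells plated at 4×10^3 per well.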

KRAS^G12C-SOS1, sequence (P01116-2 other isoform, or with tags, fused parts or gaps G12C): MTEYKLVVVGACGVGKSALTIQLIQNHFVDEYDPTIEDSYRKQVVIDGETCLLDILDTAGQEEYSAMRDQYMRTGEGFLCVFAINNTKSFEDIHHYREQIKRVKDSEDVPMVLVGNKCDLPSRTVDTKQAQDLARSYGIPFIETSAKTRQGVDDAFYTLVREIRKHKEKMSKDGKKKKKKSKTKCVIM
PI3Kδ, sequence (O00329 whole entry): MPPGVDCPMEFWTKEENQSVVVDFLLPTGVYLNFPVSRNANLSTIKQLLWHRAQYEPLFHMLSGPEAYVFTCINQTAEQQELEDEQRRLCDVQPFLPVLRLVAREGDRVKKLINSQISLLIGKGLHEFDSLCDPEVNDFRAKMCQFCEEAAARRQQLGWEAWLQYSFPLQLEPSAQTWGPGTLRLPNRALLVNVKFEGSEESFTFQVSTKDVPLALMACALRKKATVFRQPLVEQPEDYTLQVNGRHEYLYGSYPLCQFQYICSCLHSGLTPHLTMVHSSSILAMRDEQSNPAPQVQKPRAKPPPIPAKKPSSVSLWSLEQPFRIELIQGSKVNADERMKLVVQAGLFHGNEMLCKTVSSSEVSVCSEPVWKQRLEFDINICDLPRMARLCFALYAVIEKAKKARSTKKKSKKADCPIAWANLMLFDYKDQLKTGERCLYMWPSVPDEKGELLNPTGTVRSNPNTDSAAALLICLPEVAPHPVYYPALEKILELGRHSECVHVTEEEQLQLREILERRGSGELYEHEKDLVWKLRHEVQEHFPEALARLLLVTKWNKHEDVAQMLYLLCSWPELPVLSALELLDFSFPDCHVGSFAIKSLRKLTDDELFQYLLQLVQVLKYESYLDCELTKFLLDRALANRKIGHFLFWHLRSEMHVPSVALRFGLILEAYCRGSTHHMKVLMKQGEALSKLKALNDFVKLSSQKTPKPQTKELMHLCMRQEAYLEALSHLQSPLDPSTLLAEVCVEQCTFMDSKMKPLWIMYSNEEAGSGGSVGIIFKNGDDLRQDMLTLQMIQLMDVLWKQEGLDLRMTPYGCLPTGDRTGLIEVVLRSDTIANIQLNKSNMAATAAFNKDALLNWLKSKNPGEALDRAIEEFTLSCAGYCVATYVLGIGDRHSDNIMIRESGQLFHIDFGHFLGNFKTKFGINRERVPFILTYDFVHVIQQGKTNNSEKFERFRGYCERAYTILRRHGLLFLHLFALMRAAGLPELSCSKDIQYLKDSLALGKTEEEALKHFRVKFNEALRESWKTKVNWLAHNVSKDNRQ
PI3Kδ, sequence (P27986 whole entry partner): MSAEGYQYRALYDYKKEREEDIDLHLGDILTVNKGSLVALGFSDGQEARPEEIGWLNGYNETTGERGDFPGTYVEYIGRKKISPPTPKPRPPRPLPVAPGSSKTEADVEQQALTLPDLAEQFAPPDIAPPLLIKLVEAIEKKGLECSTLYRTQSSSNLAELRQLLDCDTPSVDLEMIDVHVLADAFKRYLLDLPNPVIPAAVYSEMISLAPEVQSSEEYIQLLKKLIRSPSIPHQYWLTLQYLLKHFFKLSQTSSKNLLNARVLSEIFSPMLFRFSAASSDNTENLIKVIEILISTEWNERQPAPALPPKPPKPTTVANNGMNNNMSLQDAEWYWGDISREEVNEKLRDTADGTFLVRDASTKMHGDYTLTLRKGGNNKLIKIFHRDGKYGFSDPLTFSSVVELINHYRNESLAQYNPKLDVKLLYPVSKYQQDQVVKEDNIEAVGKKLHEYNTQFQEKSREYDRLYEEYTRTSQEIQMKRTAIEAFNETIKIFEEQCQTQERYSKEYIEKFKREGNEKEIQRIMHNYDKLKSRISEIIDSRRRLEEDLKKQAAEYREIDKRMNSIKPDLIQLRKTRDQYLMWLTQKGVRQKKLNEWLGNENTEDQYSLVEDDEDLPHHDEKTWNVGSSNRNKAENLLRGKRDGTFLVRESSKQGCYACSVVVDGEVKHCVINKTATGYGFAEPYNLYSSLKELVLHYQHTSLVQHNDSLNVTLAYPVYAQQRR
PI3Kα, sequence (P42336 whole entry): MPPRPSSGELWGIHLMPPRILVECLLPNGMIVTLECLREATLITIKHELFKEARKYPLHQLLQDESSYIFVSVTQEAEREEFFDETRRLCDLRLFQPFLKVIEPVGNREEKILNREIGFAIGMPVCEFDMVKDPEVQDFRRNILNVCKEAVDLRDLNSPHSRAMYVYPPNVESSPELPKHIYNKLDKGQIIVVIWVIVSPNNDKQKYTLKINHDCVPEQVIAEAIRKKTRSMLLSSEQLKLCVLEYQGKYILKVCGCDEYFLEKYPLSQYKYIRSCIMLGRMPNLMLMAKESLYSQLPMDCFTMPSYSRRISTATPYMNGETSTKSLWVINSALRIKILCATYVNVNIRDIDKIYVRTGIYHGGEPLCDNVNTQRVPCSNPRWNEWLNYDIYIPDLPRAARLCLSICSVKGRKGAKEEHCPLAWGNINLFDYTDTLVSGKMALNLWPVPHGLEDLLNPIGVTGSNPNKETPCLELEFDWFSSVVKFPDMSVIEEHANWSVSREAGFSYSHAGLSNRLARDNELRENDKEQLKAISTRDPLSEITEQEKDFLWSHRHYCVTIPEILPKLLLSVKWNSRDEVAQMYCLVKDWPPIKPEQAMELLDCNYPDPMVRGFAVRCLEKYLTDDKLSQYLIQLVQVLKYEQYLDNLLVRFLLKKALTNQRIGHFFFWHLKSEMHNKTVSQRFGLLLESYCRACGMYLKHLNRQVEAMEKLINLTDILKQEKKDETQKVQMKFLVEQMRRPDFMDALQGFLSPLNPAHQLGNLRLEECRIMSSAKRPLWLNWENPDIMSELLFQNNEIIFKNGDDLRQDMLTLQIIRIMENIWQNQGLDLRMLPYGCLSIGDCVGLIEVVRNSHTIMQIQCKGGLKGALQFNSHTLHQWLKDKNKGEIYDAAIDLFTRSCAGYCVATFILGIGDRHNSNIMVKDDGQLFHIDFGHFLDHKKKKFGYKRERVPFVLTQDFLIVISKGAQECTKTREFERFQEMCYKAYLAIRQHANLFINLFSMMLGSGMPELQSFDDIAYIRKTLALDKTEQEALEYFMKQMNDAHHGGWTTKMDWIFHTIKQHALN
PI3Kα, sequence (P27986 whole entry partner): as the sequence (P27986 whole entry partner) above

SMILES	IC50 [1] [nM]	IC50 [2] [nM]	IC50 [3] [nM]	IC50 [4] [nM]	IC50 [5] [nM]
COc1ncc(-c2ccc3ncnc(N4CCN(C(=O)/C=C/C(C)=O)CC4)c3n2)cc1NS(=O)(=O)c1ccncc1F [Example 220, (E)-3-fluoro-N-(2-methoxy-5-(4-(4-(4-oxopent-2-enoyl)piperazin-1-yl)pyrido[3,2-d]pyrimidin-6-yl)pyridin-3-yl) pyridine-4-sulfonamide]	1.1	11.4	274	61.5	207
COc1ncc(-c2ccc3ncnc(N4CCN(C(=O)/C=C/C(C)=O)CC4)c3n2)cc1NS(=O)(=O)c1c(Cl)cncc1Cl [Example 224, (E)-3,5-dichloro-N-(2-methoxy-5-(4-(4-(4-oxopent-2-enoyl)piperazin-1-yl)pyrido[3,2-d]pyrimidin-6-yl)pyridin-3-yl) pyridine-4-sulfonamide]	1.1	23.8	188	88.1	220
COc1ncc(-c2ccc3ncnc(N4CCN(C(=O)/C=C/C(C)=O)CC4)c3n2)cc1NS(=O)(=O)c1c(F)cccc1Cl [Example 225, (E)-2-chloro-6-fluoro-N-(2-methoxy-5-(4-(4-(4-oxopent-2-enoyl)piperazin-1-yl)pyrido[3,2-d]pyrimidin-6-yl)pyridin-3-yl) benzene-sulfonamide]	0.5	8.9	110	13.5	34.9
COc1ncc(-c2ccc3ncnc(N4CCN(C(=O)/C=C/C(C)=O)[C@H](C)C4)c3n2)cc1NS(=O)(=O)c1ccccc1F [Example 228, (R,E)-2-fluoro-N-(2-methoxy-5-(4-(3-methyl-4-(4-oxopent-2-enoyl)piperazin-1-yl)pyrido[3,2-d]pyrimidin-6-yl)pyridin-3-yl)benzene-sulfonamide]	2.8	15.9	294	13.2	40.3
COc1ncc(-c2ccc3ncnc(C4CCN(C(=O)/C=C/C(C)=O)CC4)c3n2)cc1NS(=O)(=O)c1sc(C)nc1C [Example 230, (E)-N-(2-methoxy-5-(4-(1-(4-oxopent-2-enoyl)piperidin-4-yl)pyrido[3,2-d]pyrimidin-6-yl)pyridin-3-yl)-2,4-dimethylthiazol-5-sulfonamide]	2.6	4.7	493	6.9	26.7
COc1ncc(-c2ccc3ncnc(C4CCN(C(=O)/C=C/C(C)=O)CC4)c3n2)cc1NS(=O)(=O)c1c(F)cc(F)cc1F [Example 231, (E)-2,4,6-trifluoro-N-(2-methoxy-5-(4-(1-(4-oxopent-2-enoyl)piperidin-4-yl)pyrido[3,2-d]pyrimidin-6-yl)pyridin-3-yl)benzenesulfonamide]	3.6	16.1	462	3.7	21.6
COc1ncc(-c2ccc3ncnc(C4CCN(C(=O)/C=C/C(C)=O)CC4)c3n2)cc1NS(=O)(=O)c1ccccc1F [Example 232, (E)-2-fluoro-N-(2-methoxy-5-(4-(1-(4-oxopent-2-enoyl)piperidin-4-yl)pyrido[3,2-d]pyrimidin-6-yl)pyridin-3-yl)benzenesulfonamide]	2	14.6	269	8.7	44
COc1ncc(-c2ccc3ncnc(C4CCN(C(=O)/C=C/C(C)=O)CC4)c3n2)cc1NS(=O)(=O)c1c(F)cccc1F [Example 233, (E)-2,6-difluoro-N-(2-methoxy-5-(4-(1-(4-oxopent-2-enoyl)piperidin-4-yl)pyrido[3,2-d]pyrimidin-6-yl)pyridin-3-yl)benzenesulfonamide]	4	31.3	204	5	52
COc1ncc(-c2ccc3ncnc(C4CCN(C(=O)/C=C/C(C)=O)CC4)c3n2)cc1NS(=O)(=O)c1ccc(F)cc1F [Example 234, (E)-2,4-difluoro-N-(2-methoxy-5-(4-(1-(4-oxopent-2-enoyl)piperidin-4-yl)pyrido[3,2-d]pyrimidin-6-yl)pyridin-3-yl)benzenesulfonamide]	4.2	20	292	5.5	58.2
